The source of these data is US6681132B1, “Sodium magnetic reasonance imaging used in diagnosing tumors and assessing response to treatment” (The Trustees of Columbia University in the City of New York, priority 1999, dated 2004).

For one assay, the system named is DU145 cells. Kind of assay: APO-BRDU endlabelling of DNA fragmentation, flow cytometry, DU145. The assay is classed as cell-based, human. As to conditions: for time course of DNA fragmentation: DU 145, 24-hr sample point. As to the method: Chemotherapy, cellular apoptosis, ion activity Cells were cultured and drugs added to media for various times. Fluorescent endlabelling techniques for flow cytometry have been described in detail (23, 97). […] TdT attaches BrdU to DNA ends, following which fluorescent antibodies for BrdU tagged the DNA fragments. Propidium iodide (PI) gives cell cycle position.
At the end of the treatment period, cells are trypsinized, resuspended in media, resuspended in PBS, resuspended in iced cold methanol free formaldehyde (1% in PBS) for 15 min, resuspended in 70% ethanol and stored at −20° C. until all samples from a given experiment are ready to run (19, 23).
Fixed cells are labeled following kit instructions (two washes with kit buffer, overnight endlabelling, two resuspensions in a rinse buffer, exposure to fluorescent antibody and treatment with propidium iodide and RNAase. Flow cytometry is performed on a Becton/Dickenson FACStar II. Individual fluorescence intensity values for 10,000 cells are obtained for each sample.
To specifically assay DNA fragmentation, a downstream response to apoptosis, uses of a terminal deoxynucleotidyl transferase labeling approach whereby fluorescent moieties are enzymatically attached to all DNA fragment ends.
Background: A flow cytometer gives signals particle by particle.

The subject of the next assay is PC3 and DU145 tumors. As to the kind of experiment: IR sodium MRI, PC3 and DU145 tumors taken as a whole. The assay is classed as in vivo, nude mice. The settings on record: PC3 and DU145 tumors plotted together. As to the method: (A) Chemotherapy and inversion recovery MR imaging—Following acquisition of control images, antineoplastics were administered. All IR images and SQ images were normalized to the brightest phantom within each slice (i.e., 40% Ficoll for IR and 30% Ficoll for SQ respectively). All tumors were analyzed by examining changes in intensity at the brightest—usually central area—of the tumor image. It was clearly identifiable both from manual examination with line profiles or from the pixel density histogram derived from a region of interest analysis. […] Results from PC3 tumors (solid lines, filled circles) and DU145 tumors (dashed lines, open circles) are plotted together. […]
In vivo detection of antineoplastic effects using weighted sodium MR images—Examination of the effect of chemotherapy on the IR sodium image in a series of PC3 and DU145 tumors was studied. […] Elevation is significant for each drug taken separately for the more numerous PC3 tumor experiments (taxotere, 32% increase at p<0.001, n=5; VP-16, 38% increase at p<0.0005, n=7); and is also significant for all PC3 experiments measured at 48 hrs (28%, p<0.05, n=11). […]
The effect of chemotherapy on the IR sodium image intensity in PC3 and DU145 tumors was consistent with the culture results. […] These values were calculated from human doses using standard equations which convert weight to surface area for small mammals. […]

In another assay the test system is PC3 tumors. As to the kind of experiment: Inversion recovery (IR) weighted sodium MRI of PC3 tumors after chemotherapy. Format: in vivo, nude mice. As to conditions: for increase in maximum IR sodium image intensity: PC3 tumors, 24 hrs vs predrug, 25 msec inversion time, normalized to brighter phantom, taxotere 1.5 mg, VP-16 0.2-0.4 mg, femoral vein. As to the method: (A) Chemotherapy and inversion recovery MR imaging—Following acquisition of control images, antineoplastics were administered. All IR images and SQ images were normalized to the brightest phantom within each slice (i.e., 40% Ficoll for IR and 30% Ficoll for SQ respectively). All tumors were analyzed by examining changes in intensity at the brightest—usually central area—of the tumor image. It was clearly identifiable both from manual examination with line profiles or from the pixel density histogram derived from a region of interest analysis. […] Results from PC3 tumors (solid lines, filled circles) and DU145 tumors (dashed lines, open circles) are plotted together. In two experiments with control saline injections (not shown in graphs), there were small decreases of 5.5% (NS) at 24 hours and 3.5% (NS) at 48 hours.
In vivo detection of antineoplastic effects using weighted sodium MR images—Examination of the effect of chemotherapy on the IR sodium image in a series of PC3 and DU145 tumors was studied. Control and post-therapy images were acquired in sixteen mice, and tumors in two additional mice had images reacquired at both 24 and 48 hrs following control saline injection. […] Results are plotted as change in maximum image intensity for each drug separately (top panel, FIG. 4, taxotere; bottom panel, FIG. 4, VP-16 etoposide). Elevation is significant for each drug taken separately for the more numerous PC3 tumor experiments (taxotere, 32% increase at p<0.001, n=5; VP-16, 38% increase at p<0.0005, n=7); and is also significant for all PC3 experiments measured at 48 hrs (28%, p<0.05, n=11).
All imaging experiments were performed on a high field (4.23 Tesla) whole body MRI system. A small quadrature birdcage radiofrequency coil (50 mm ID, Morris Inc.) and a high strength gradient insert coil (30 mT/m, Bruker model G-33) were employed. Acquisition parameters were TR=100 msec, TE=5.6 msec, FOV=40 mm, slice thickness=2.5 mm, flip angle=90° , inversion time=25 msec, acquisition matrix was 64×64×8. The two phantoms on all animal images shown were identical (P1-30% Ficoll in 200 mM NaCl; P2-40% Ficoll in 200 mM NaCl). All animal images were normalized to the brighter phantom (e.g. P1 on the SQ, P2 on the IR). Animals were positioned in a specially designed animal holder, allowing for reproducible tumor placement.
Two adjacent slices from a 3 dimensional gradient echo image set of a PC3 tumor are shown before (FIGS. 5, A&B) and 48 hrs after (FIGS. 5, C&D) injection of 1.5 mg taxotere to the nude mouse. […] The second example illustrates the contribution of this technique at its limit of resolution.
Inversion recovery images (25 msec inversion time) were acquired for 16 nude mouse tumors following chemotherapy. […]

Consider `COc1cc([C@@H]2c3cc4c(cc3[C@@H](O[C@@H]3O[C@@H]5CO[C@@H](C)O[C@H]5[C@H](O)[C@H]3O)[C@H]3COC(=O)[C@H]23)OCO4)cc(OC)c1O` [VP-16, etoposide], for which the “time course of DNA fragmentation” value in the assay with DU145 cells was “response peaks and subsides”. In addition, in the assay on DU145 cells (Du145, 8 hrs), the endlabelling response entry is given as “No response”. Moreover, the “increase of endlabelling intensity (DNA fragmentation)” value with DU145 cells (Du145, 24 hrs exposure) was found to be 100 fold. Moreover, the “IR image intensity at 24 hrs versus control (graphs)” value with PC3 and DU145 tumors is “increased image intensity”. The “increase in maximum IR sodium image intensity” value with PC3 tumors was determined as 38%. Besides, the “detectability of tumor on IR image” value in the assay with PC3 tumors (elongated PC3 tumor, 24 hr after injection of 0.3 mg) is recorded as “readily apparent following chemotherapy”.
With `CC(=O)O[C@@]12CO[C@@H]1C[C@H](O)[C@@]1(C)C(=O)[C@H](O)C3=C(C)[C@@H](OC(=O)[C@H](O)[C@@H](NC(=O)OC(C)(C)C)c4ccccc4)C[C@@](O)([C@@H](OC(=O)c4ccccc4)[C@H]21)C3(C)C` [taxotere], the “time course of DNA fragmentation” value in the assay on DU145 cells was “response peaks and subsides”. In the assay on PC3 and DU145 tumors, the “IR image intensity at 24 hrs versus control (graphs)” value is “increased image intensity”. Moreover, in the assay with PC3 tumors (PC3 tumor, 48 hrs after injection of 1.5 mg), the “spatial change of tumor on inversion recovery image” value was “clear spatial broadening of the tumor”. Moreover, in the assay with PC3 tumors, the “increase in maximum IR sodium image intensity” value was 32%.
